From a melting point compilation (Tetko et al.; mined from patent text by program, amines drawn as free bases though some values may be those of a salt)

melting point [°C]	SMILES
65 to 66	CC(C)OC(=O)CCC(=O)c1ccc(-c2ccccc2F)cc1
81 to 82	CN(C)C=C(C#N)C#N
88 to 97	NC1=NC(c2ccc(OC(F)(F)F)cc2)(c2cccc(-c3cccnc3F)c2)C2=NCCCCN12 (stereo not drawn)
64 to 69	CCc1nc2c(C)cc(C)nc2n1Cc1ccc(C(CCNS(=O)(=O)C(F)(F)F)c2ccccc2)cc1 (stereo not drawn)
164	CCOC(=O)c1cc(C#N)c(N)cc1OC
61	CCCCCCCCCCCCCCCCOc1cc(OC)c(N)cc1OC
38 to 39	CCOC(=O)CNc1ncccc1[N+](=O)[O-]
94 to 95	CCOC(=O)c1cn(Cc2ccccc2)nc1NC(=O)NC1CCCCC1
109 to 112	CCc1nc2c(cnn2CC)c(NC2CCOCC2)c1CNC(=O)c1cccc(C(=O)NCc2ccc(C)c(-c3cccc(CN4CC(C)NC(C)C4)c3)c2)c1 (stereo not drawn)
159 to 160	O=C1C2CC3CC1CC(OCc1ccc(-c4nc5ccccc5o4)cc1)(C3)C2
103 to 105	CC1(C)Oc2ccc(S(=O)(=O)c3ccccc3)cc2C2OC21 (stereo not drawn)
103 to 104	CC(Oc1ccc(F)cc1)c1ccnn2cnnc12 (stereo not drawn)
90 to 91	C/C(=C\c1ccc(OCc2nc(-c3ccc(C(F)(F)F)cc3)oc2C)cc1)Cn1oc(=O)[nH]c1=O
102 to 107	CN(C)c1cccc2c(S(=O)(=O)N3CCC(NC(=O)Nc4ccc(OC(F)(F)F)cc4)CC3)cccc12
185	CC(=O)NCCCCC(=O)OC1c2ccccc2C(=O)N1c1ccc2ccc(Cl)nc2n1 (stereo not drawn)
78 to 80	CC(=O)Nc1nc(CCc2ccc(N)cc2)c(C(=O)NCc2ccc(S(C)(=O)=O)cc2)s1
108 to 110	CCOC(=O)C(=CN(C)c1cnsn1)C(=O)c1cc(F)c(Cl)nc1Cl
209 to 211	Nc1cccc(C(=O)Nc2cccc3cc(Br)cnc23)c1
98 to 99	CCCCCCC(O)CCCCCCCCCCC(N)=O (stereo not drawn)
203 to 205	CCOCCOc1ccc(-c2ccc3c(c2)C=C(C(=O)Nc2ccc(CN(C)C4CCOCC4)cc2)CCS3(=O)=O)cc1Cl
110	CCCN(CCCCc1c[nH]c2ccc(F)cc12)C1COc2c(F)ccc(C(=O)NC)c2C1 (stereo not drawn)
129 to 131	Cc1c(-c2ccc(OC3CCCC3)cc2)n(Cc2ccc(OCCO)cc2)c2ccc(OCc3ccccc3)cc12
189 to 191	FC(F)(F)c1ccc(Cl)cc1CN1CCNc2ncc(I)cc21
123 to 124	C=CCn1c(C)c(C)c2cnnc(CCc3ccc(F)cc3)c21

melting point [°C]	SMILES
197 to 198	CC(O)c1ccc(Cc2cn(-c3ccc(F)cc3)c3ncccc3c2=O)cc1 (stereo not drawn)
100	CC12CCC3=C(CCC(CCCC#N)O3)C1=CCC2=O (stereo not drawn)
139 to 141	O=C1N(Cc2ccccc2)c2cc(Cl)ccc2N=C2CCCC12Cc1ccccc1 (stereo not drawn)
150 to 151	Clc1ccc2c(c1)oc1cc(OCCn3ccnc3)ccc12
140 to 142	Cc1cccc(C)c1N1C(=N)C(C)N(c2c(C)cccc2C)C1C(=O)OCc1ccc(Cl)cc1 (stereo not drawn)
59 to 61	CCOC(=O)c1ccc(COc2cccc3oc(C)cc23)cc1
118 to 120	CCNC(=S)Nc1ccccc1N1CCOCC1
68.5 to 77	Cc1cc(C2(C(F)(F)F)CC(c3ccc(S(C)=O)cc3)=NO2)ccc1N (stereo not drawn)
196 to 198	O=C(O)C1CCc2c(c3cccc(Br)c3n2C(=O)c2ccccc2)C1 (stereo not drawn)
143 to 145	COc1cccc2cc(C(=O)c3ccc(Cl)c(S(=O)(=O)Cl)c3)oc12
247	COC[C@H](Cc1ccccc1)NC(=O)[C@@H](CC(=O)O)n1ccc(-c2ccc(-c3ccccc3)cc2)c1
156 to 157	COc1ccc(-c2cc(COS(C)(=O)=O)c(=O)n(Cc3ccc(Cl)cc3)n2)cc1F
94 to 94.5	CCN(CC)C(=O)COc1ccc(CCCOC(=O)NCC2CC2)c(Oc2ncc(C(F)(F)F)cc2Cl)c1
> 260	O=C1CCN2C(=O)c3cccc(NC(=O)Nc4cc(O)c5ccccc5n4)c3C2C1 (stereo not drawn)
276	CC(=O)N(C)C1Cc2ccc(C(=O)Cn3cnc4cc(-c5ccc(Cl)cc5)sc4c3=O)cc2C1 (stereo not drawn)
90 to 92	COC(=O)C1C=CCN2C(=O)C(CCI)(Cc3ccccc3)C(=O)N12 (stereo not drawn)
171 to 172	N#Cc1ccc(OCc2ccncc2)cc1OC(C(=O)O)c1ccccc1Br (racemic)
242	Nc1ccc(N2CCN(Cc3ccccc3)CC2)cc1C(=O)O
149 to 151	CC1(C)CC(OC(=O)c2ccccc2C(=O)OC2CC(C)(C)N(OC3CCCCC3)C(C)(C)C2)CC(C)(C)N1OC1CCCCC1
155 to 162	COc1ccc(C(=O)c2[nH]c(=O)[nH]c2COC(C)=O)cc1
217 to 224	CNCCCNc1ccc2c(NC(=O)CC34CC5CC(CC(C5)C3)C4)c(C)ccc2n1
200 to 202	COc1ccccc1C(=O)c1c(SC)nn(-c2c(Cl)cc(Cl)cc2Cl)c1N
176 to 177	Nc1nc(-c2ccc(CCNC(=O)Cc3ccccc3)cc2)cs1
114 to 116	COc1c(OCc2ccccc2)cnc(CNc2nc(C)nc(C)c2Cl)c1C

melting point [°C]	SMILES
194 to 196	CC(C)(C)c1nc(C=C2SC(=S)N(N)C2=O)nc(C(C)(C)C)c1O
205	COc1cc(O)c(C=NNC(=O)c2cc3ccccc3s2)c(OC)c1
130	C=CCc1cc(CC(=O)O)ccc1OCc1ccc2ccccc2n1
124 to 125	Clc1cc(CCc2ccccn2)c2oc(-c3cnc4ccccc4c3)nc2c1
213 to 214	ON=Cc1ccc2c(c1)ncn2-c1cccc(N2CCCCC2)c1
124 to 126	CCc1nc2ccccc2c(=O)n1CCNc1ccc(SC(C)(C)C(=O)O)cc1
> 350	O=C(O)Cc1cc2c([N+](=O)[O-])c(O)c(O)cc2oc1=O
164 to 166	COC(=O)c1cc2cc(OC)c(OCCCl)cc2[nH]1
99 to 101	COC(=O)Cc1sc(F)c(N=c2sc(=O)n3n2CCCC3)c1Cl
122 to 126	CCOC(=O)c1cc(C)c(Cl)nc1Nc1ccccc1F
111 to 115	CCCn1c(=O)c2c(Cl)cc(Cl)cc2n(Cc2ccccc2)c1=O
106 to 107	C#CC(C)(C)N1CCN(C(=O)OC(C)(C)C)CC1
88 to 89	O=C1c2ccccc2C(=O)N1CCCc1cccnc1
68 to 71	COC(=O)C(Oc1ccccc1)c1ccc(I)cc1 (stereo not drawn)
129 to 130	c1ccc2c(c1)CCc1nc(-c3ccncc3)oc1-2
68 to 70	COc1cc(N)c(Cl)cc1C(=O)NCC1CCN(CCCCCCSc2ccccc2)CC1
125 to 126	Cc1cn(C)c(CO)n1
105 to 106	Cc1ccccc1CNCCc1ccc(NC(=N)c2cccs2)cc1
146 to 147	CC(=O)NC1=CC(C)(C)Oc2ccc(C#N)cc21
224 to 225	CN1C[C@@H]2C[C@H]1CN2C(=O)N1CCC(c2[nH]nc3c2C(=O)c2c(NC(=O)NN4CCOCC4)cccc2-3)CC1
191 to 194	O=C(Nc1ccc(CN2C(=O)C3CCCC3N(C(=O)CN3C(=O)c4ccccc4C3=O)c3ccccc32)cc1)c1ccc2ccccc2c1 (stereo not drawn)
100 to 102	CCOC(=O)C(=CNc1cscc1OC)C(=O)OCC
105 to 107	CC1(C)CON(CC2=C(Cl)CC(=NCc3ccccc3O)C=C2)C1=O
160 to 162	COC(=O)C1=C(C)NC(c2csc(Cl)n2)=NC1c1ccc(F)cc1Cl (stereo not drawn)

melting point [°C]	SMILES
295 to 296	O=c1c2[nH]nnc2nc2sc(CCc3ccccc3)nn12
56 to 58	O=C(CNC(=O)c1cc([N+](=O)[O-])ccc1F)OCc1ccccc1
154 to 155	COc1ccc(C=CC(=O)CC(=O)C=Cc2ccc(OC)cc2)cc1
125 to 126	OCc1nn(-c2ccc(Cl)cc2)c2c1CCCC2
94.5 to 95.5	O=C1c2cc(C(=O)N3CCCCC3)ccc2-c2ccc(C(=O)N3CCCCC3)cc21
165 to 168	Cc1nc2c(s1)CCN(C(=O)c1ccc(NC(=O)c3ccccc3-c3ccccc3)cc1)c1ccccc1-2
173 to 174	C1=C(CCc2ccccc2)CCN(Cc2n[nH]c3c2CCc2ccccc2-3)C1
125	COC(=O)c1ccc(C#N)c(OC)n1
160	CC1(C)Cc2c(N)c(Cl)cc(C(=O)NC3CCN(CCCNc4nc(O)c5ccccc5n4)CC3)c2O1
65 to 75	CCOC(=O)N1Cc2ccccc2C2(Cc3ccccc3O2)C1 (stereo not drawn)
124 to 125	C=CCOc1cc2oc(=O)ccc2cc1C
124 to 125	CCC(O)(Cn1cncn1)C(C)(C)Cc1ccc(Cl)cc1 (stereo not drawn)
48 to 51	Nc1ccccc1-c1cnoc1
115 to 118	CC12CCC3C4CCC(=O)C=C4CCC3C1CCC2CO (stereo not drawn)
97 to 98	CCCc1nn(-c2ccc(C(F)(F)F)cn2)cc1CCCOc1cccc(CCC(=O)O)c1
195 to 197	CC(=O)Nc1cc(C(=O)O)ccc1C(F)(F)F
160 to 165	CCN1Cc2nc(CO)cn2-c2ccccc21
207	Cc1nc2ccc(N3C[C@H](C(N)c4nccs4)OC3=O)cc2s1 (stereo partly drawn)
131 to 132	CCOC(=O)Oc1ccc(S(=O)(=O)N2c3cc(F)c(F)c(F)c3-n3cccc3C2CC)cc1 (stereo not drawn)
132 to 134	CC(=O)NCCC1CCc2ccc3nc(CO)oc3c21 (stereo not drawn)
> 260	O=C(O)c1cnc2cccc(O)c2c1
288 to 293	O=c1[nH]c2cc(Br)c3c(c2[nH]c1=O)CN(CCCc1ccccc1)CC3

SMILES	melting point [°C]
NP(N)(=O)Oc1ccc2cccc(NS(=O)(=O)c3ccc([N+](=O)[O-])cc3)c2c1	234 to 235
CC(=O)Nc1ncc(C23CCCN(CC2)C3)o1 (stereo not drawn)	142 to 143
CCN(CC)Cc1nc(-c2ncn3c2[C@@H]2CCN2C(=O)c2ccccc2-3)no1	209 to 211
N#Cc1ccc(O)cc1Cl	157 to 158
